Measured values published in US20120128630A1, “1-(6 MEMBERS AZO-HETEROCYCLIC)-PYRROLIN-2-ONE COMPOUNDS AS INHIBITORS OF HEPATITIS C NS5B POLYMERASE, THE PHARAMACEUTICAL COMPOSITION THEREOF AND THEIR THERAPEUTIC USE” (priority 2009, published 2012).
pEC50: −log10 of the molar value. Values joined by “and” are separate entries in the source; they are usually repeats but may differ in a detail not shown here. Identical values can stand only once.

Experiments:
HCV replicon Luc Neo ET = assay: Luc Neo ET Replicon assay; type: cell-based, Hepatitis C virus; conditions: Table 3, titled RdRp enzyme assay results, EC50_Replicon LucneoET, 72 hours with compound, luciferase
Experimental: Human Hepatoma Huh-7 cell line was maintained in DMEM/HAMF-12 supplemented with 10% SVF, 4 mM glutamine, […] Na pyruvate, 1% penistreptomycine. HCV replicon containing Huh-7 cell lines Huh-9.13 and Luc Neo ET (Reblikon) were maintained in DMEM supplemented with 10% SVF, 2 mM glutamine, and 1×NEAA, 100 U/ml penicillin, and 100 μg/ml streptomycine. Replicon cells were maintained in medium supplemented with 1 mg/ml G418 for replicon Huh-9.13 and 0.5 mg/ml for Luc Neo et replicon unless indicated otherwise. Huh-7 and HCV replicon cell lines were maintained at 37° C. and 5% CO2 in a humidified atmosphere. Cells were dissociated at sub confluence with trypsin EDTA 1×.
Replicon Luc Neo ET is a bicistronic expression constructs (Lohmann et al, 1999, Science 285, 110-113). In brief, the structural genes of the HCV genome were replaced by heterologous sequences; the gene encoding the neomycin phosphotransferase (NPT) and the internal ribosome entry site (IRES) of the encephalomyocarditis virus (EMCV). The bicistronic construct is therefore composed of the following elements: HCV-IRES nucleotides 1-389, the NPT gene, the EMCV-IRES directing translation of downstream HCV sequences from NS2 or NS3 up to the authentic 3′ end of the genome. HCV Polyprotein harbours the cell culture adaptive mutations E1202G, T1280I, K1846T. G418-resistance is only possible with cells containing high amounts of replicon.
Cells were dissociated the day before addition of compounds and seeded in 96 well-plates at a final concentration of 77 777.77 cells.ml^−1.well^−2 in 90 μl final volume of culture medium per well and were maintained at 37° C. and 5% CO2 in a humidified atmosphere for 24 hours. 10 μl of compounds to be tested were added 24 hours after seeding. Final concentration of DMSO was 1%. Cells were incubated in the presence of compounds for 72 hours after which expression of firefly luciferase reporter gene was quantified. Briefly, culture medium was removed and cells were lysed by addition of 100 μl of lysis buffer containing 125 mM Tris Phosphate ph 7.8, 10 mM EDTA, 5 mM DTT, 50% glycerol and 5% Triton. Plates were vortexed 10 min at 1300 rpm. Cell lysat was transferred in OpaqueWhite Assay 96 well Flat Bottom plates. 100 μl of luciferin solution 1× were added to each well. Luciferin solution contained 40 mM Tris Phosphate ph 7.8, 0.2 mM EDTA, 67 mM DTT, 2.14 mM MgCl2, 5.4 mM MgSO4, 4.7×10^−4 M luciferin, 5.3×10^−4 M ATP and 2.7×10^−4 M Acetyl co enzyme A. Luminescence was immediately measured with Berthold Microlumat Plus LB 96V luminometer with an integration of 0.5 sec Inhibition was calculated using the formula:
% inhibition=1−[(RLUsample−RLUbackground)/(RLUsignal−RLUbackground)]

HCV NS5B genotype 1b = target: T1, HCV NS5B genotype 1b (Hepatitis C virus genotype 1b, UniProt Q9WMX2); assay: 3D-SCREEN assay (NS5B 3D-Screen platform, luciferase reporter gene); type: cell-based; conditions: EC50_3DS_NS5B
T1 construct: The protein was expressed with a 21 amino acid C-terminal deletion to remove transmembrane domain; expressed in transfected cells; host or cells: Huh-7
Outline: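 Huh-7 cells transiently co-transfected with NS5BΔ21/Gal4-DBD, 3D-Sensor peptide I4/VP16 and firefly luciferase reporter. Compounds added 2 h after seeding, 1% DMSO final, 24 h incubation. Luciferase luminescence read; % inhibition relative to no-compound signal.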

[1] = Table 1, 3D-SCREEN assay results, Huh-7 cells, 24 hours with compound, firefly luciferase reporter
[2] = Table 2, titled Replicon assay results

Row | SMILES | pEC50 (HCV replicon Luc Neo ET) | melting point | pEC50 (HCV NS5B genotype 1b; [1]) | pEC50 (HCV replicon Luc Neo ET; Hepatitis C virus, 72 h) | pEC50 (HCV NS5B genotype 1b; [2])
1 | Cc1ccc(N2C(=O)C(O)=C(C(=O)c3ccc(C(C)C)cc3)C2c2ccc(C(C)C)cc2)cn1 (stereo not drawn) [Example 48, 3-hydroxy-4-(4-isopropyl-benzoyl)-5-(4-isopropyl-phenyl)-1-(6-methyl-pyridin-3-yl)-1,5-dihydro-pyrrol-2-one] | 6.00 | 252 to 254 °C | 6.15 | – | –
2 | CC(=O)OC1=C(C(=O)c2ccc(C(C)C)cc2)C(c2ccc(C(C)C)cc2)N(c2ccc(C)nn2)C1=O (stereo not drawn) [Example 56, Acetic acid 4-(4-isopropyl-benzoyl)-5-(4-isopropyl-phenyl)-1-(6-methyl-pyridazin-3-yl)-2-oxo-2,5-hydro-1H-pyrrol-3-yl ester] | – | 215 °C | 6.30 | 6.22 | –
3 | Cc1ccc(N2C(=O)C(O)=C(C(=O)c3ccc(C(C)C)cc3)C2c2ccc(OC(F)(F)F)cc2)nn1 (stereo not drawn) [Example 61, 3-hydroxy-4-(4-isopropyl-benzoyl)-1-(6-methyl-pyridazin-3-yl)-5-(4-trifluoromethoxy-phenyl)-1,5-dihydro-pyrrol-2-one] | – | 258 to 260 °C and 262 to 265 °C | 7.15 | 7.00 | –
4 | COc1ccc(C2C(C(=O)c3ccc(C(C)C)cc3)=C(O)C(=O)N2c2ccc(C)nn2)cc1 (stereo not drawn) [Example 62, 3-hydroxy-4-(4-isopropyl-benzoyl)-5-(4-methoxy-phenyl)-1-(6-methyl-pyridazin-3-yl)-1,5-dihydro-pyrrol-2-one] | – | 263 to 267 °C | 6.10 | 6.05 | –
5 | Cc1ccc(N2C(=O)C([O-])=C(C(=O)c3ccc(C(C)C)cc3)C2c2ccc(C(C)C)cc2)cn1.[Na+] (stereo not drawn) [Example 67, Sodium; 4-(4-isopropyl-benzoyl)-5-(4-isopropyl-phenyl)-1-(6-methyl-pyridin-3-yl)-2-oxo-2,5-dihydro-1H-pyrrol-3-olate] | > 5.00 | 215 °C | 5.52 | – | –
6 | CC(=O)OC1=C(C(=O)c2ccc(C)cc2)C(c2ccc(OC(F)(F)F)cc2)N(c2ccc(C)nn2)C1=O (stereo not drawn) [Example 76, Acetic acid 4-(4-methyl-benzoyl)-1-(6-methyl-pyridazin-3-yl)-2-oxo-5-(4-trifluoromethoxy-phenyl)-2,5-dihydro-1H-pyrrol-3-yl ester] | – | 165 to 166.5 °C | 6.22 | > 5.00 | –
7 | Cc1ccc(N2C(=O)C(O)=C(C(=O)c3ccc(C(C)C)cc3)C2c2ccc(OC(F)(F)F)cc2)cn1 (stereo not drawn) [Example 77, 3-hydroxy-4-(4-isopropyl-benzoyl)-1-(6-methyl-pyridin-3-yl)-5-(4-trifluoromethoxy-phenyl)-1,5-dihydro-pyrrol-2-one] | – | 214 to 218 °C | – | > 5.00 | > 6.00
8 | Cc1ccc(N2C(=O)C(O)=C(C(=O)c3ccc(-c4ccccc4)cc3)C2c2ccc(OC(F)(F)F)cc2)nn1 (stereo not drawn) [Example 79, 4-(biphenyl-4-carbonyl)-3-hydroxy-1-(6-methyl-pyridazin-3-yl)-5-(4-trifluoromethoxy-phenyl)-1,5-dihydro-pyrrol-2-one] | – | 226 to 232 °C | 6.30 | > 5.00 | –
9 | Cc1ccc(N2C(=O)C(O)=C(C(=O)c3ccc(N4CCOCC4)cc3)C2c2ccc(OC(F)(F)F)cc2)nn1 (stereo not drawn) [Example 80, 3-hydroxy-1-(6-methyl-pyridazin-3-yl)-4-(4-morpholin-4-yl-benzoyl)-5-(4-trifluoromethoxy-phenyl)-1,5-dihydro-pyrrol-2-one] | – | 234 °C | 5.70 | > 5.00 | –
10 | Cc1ccc(N2C(=O)C(O)=C(C(=O)c3ccc(C(C)C)cc3)C2c2ccc(OC(F)F)cc2)nn1 (stereo not drawn) [Example 88, 5-(4-difluoromethoxy-phenyl)-3-hydroxy-4-(4-isopropyl-benzoyl)-1-(6-methyl-pyridazin-3-yl)-1,5-dihydro-pyrrol-2-one] | – | 263 to 265 °C | – | > 6.00 | > 6.00
11 | Cc1ccc(N2C(=O)C(O)=C(C(=O)c3ccc(C(C)C)cc3)C2c2ccc(OC(C)C)cc2)nn1 (stereo not drawn) [Example 89, 3-hydroxy-5-(4-isopropoxy-phenyl)-4-(4-isopropyl-benzoyl)-1-(6-methyl-pyridazin-3-yl)-1,5-dihydro-pyrrol-2-one] | – | 280 to 281 °C | – | > 5.00 | > 5.00
12 | Cc1ccc(N2C(=O)C(O)=C(C(=O)c3ccc(C(C)C)cc3)C2c2ccc(OC(C)(C)C)cc2)nn1 (stereo not drawn) [Example 90, 5-(4-tert-butoxyphenyl)-3-hydroxy-4-(4-isopropyl-benzoyl)-1-(6-methyl-pyridazin-3-yl)-1,5-dihydro-pyrrol-2-one] | – | 276 to 277 °C | – | > 5.00 | > 5.00
13 | CCc1ccc(C(=O)C2=C(O)C(=O)N(c3ccc(C)nn3)C2c2ccc(OC(F)(F)F)cc2)cc1 (stereo not drawn) [Example 102, 4-(4-ethyl-benzoyl)-3-hydroxy-1-(6-methyl-pyridazin-3-yl)-5-(4-trifluoromethoxy-phenyl)-1,5-dihydro-pyrrol-2-one] | – | 263 to 267 °C | – | > 6.00 | > 6.00
14 | CCOc1ccc(C2C(C(=O)c3ccc(C(C)C)cc3)=C(O)C(=O)N2c2ccc(C)nn2)cc1 (stereo not drawn) [Example 104, 5-(4-ethoxy-phenyl)-3-hydroxy-4-(4-isopropyl-benzoyl)-1-(6-methyl-pyridazin-3-yl)-1,5-dihydro-pyrrol-2-one] | – | 279 °C | – | > 6.00 | > 6.00
15 | CCc1ccc(C2C(C(=O)c3ccc(C(C)C)cc3)=C(O)C(=O)N2c2ccc(C)nn2)cc1 (stereo not drawn) [Example 105, 5-(4-ethyl-phenyl)-3-hydroxy-4-(4-isopropyl-benzoyl)-1-(6-methyl-pyridazin-3-yl)-1,5-dihydro-pyrrol-2-one] | – | 282 to 284 °C | – | > 6.00 | > 6.00
16 | CC(C)c1ccc(C(=O)C2=C(O)C(=O)N(c3ccc(Sc4ccc([N+](=O)[O-])cc4)nn3)C2c2ccc(OC(F)(F)F)cc2)cc1 (stereo not drawn) [Example 119, 3-hydroxy-4-(4-isopropyl-benzoyl)-1-[6-(4-nitro-phenylsulfanyl)-pyridazin-3-yl]-5-(4-trifluoromethoxy-phenyl)-1,5-dihydro-pyrrol-2-one] | – | 194 to 209 °C | – | > 5.00 | > 6.00
17 | Cc1ccc(N2C(=O)C(O)=C(C(=O)c3ccc(C(C)C)cc3)C2c2ccc(OC3CC3)cc2)nn1 (stereo not drawn) [Example 120, 5-(4-cyclopropoxy-phenyl)-3-hydroxy-4-(4-isopropyl-benzoyl)-1-(6-methyl-pyridazin-3-yl)-1,5-dihydro-pyrrol-2-one] | – | 285 to 288 °C | – | > 6.00 | > 6.00
18 | Cc1ccc(N2C(=O)C(O)=C(C(=O)c3ccc(C(C)(C)C)cc3)C2c2ccc(OC(F)(F)F)cc2)nn1 (stereo not drawn) [Example 123, 4-(4-tert-butyl-benzoyl)-3-hydroxy-1-(6-methyl-pyridazin-3-yl)-5-(4-trifluoromethoxy-phenyl)-1,5-dihydro-pyrrol-2-one] | – | 262 to 265 °C | – | > 6.00 | > 6.00
19 | Cc1ccc(N2C(=O)C(O)=C(C(=O)c3ccc(C4CCCCC4)cc3)C2c2ccc(OC(F)(F)F)cc2)nn1 (stereo not drawn) [Example 125, 4-(4-cyclohexyl-benzoyl)-3-hydroxy-1-(6-methyl-pyridazin-3-yl)-5-(4-trifluoromethoxy-phenyl)-1,5-dihydro-pyrrol-2-one] | – | 283 to 286 °C | – | > 5.00 | > 5.00
